Results reported in US9238039B2, “Pyrazolo[1,5-A]pyrimidines for antiviral treatment” (Gilead Sciences, Inc., priority 2010, dated 2016).

Tested on: RSV strain A2
Test: RSV antiviral cytoprotection assay in Hep2 cells (96-well and 384-well format, Cell TiterGlo read-out)
Type: cell-based, Respiratory Syncytial Virus (RSV)
Conditions: human respiratory syncytial virus, HEp-2, 0.5 uM; RSV-induced cytopathic effect in Hep2 cells; calculated from fitted dose response curve, normalized to 0% and 100%

Compound | inhibition at 0.5 µM [%]
Cc1cn2nc([C@@H]3CCCCN3C(=O)c3cccc(C)c3Cl)cc2nc1N1CC[C@H](N)C1 [Compound 334] | 100
Cc1ccc(Cl)cc1C(=O)N1CCCC[C@H]1c1cc2nc(N3CC[C@H](N)C3)c(C)cn2n1 [Compound 335] | 99
Cc1cn2nc([C@@H]3CCCCN3C(=O)c3ccc(C(N)=O)s3)cc2nc1N1CC[C@H](N)C1 [Compound 336] | 78
Cc1cn2nc([C@@H]3CCCCN3C(=O)c3cccc4ccccc34)cc2nc1N1CC[C@H](N)C1 [Compound 338] | 72
Cc1cn2nc([C@@H]3CCCCN3C(=O)c3cc(O)ccc3Cl)cc2nc1N1CC[C@H](N)C1 [Compound 339] | 99
Cc1cn2nc([C@@H]3CCCCN3C(=O)c3ccc(Cl)c(O)c3)cc2nc1N1CC[C@H](N)C1 [Compound 340] | 100
Cc1cc(C(=O)N2CCCC[C@H]2c2cc3nc(N4CC[C@H](N)C4)c(C)cn3n2)c(Cl)nn1 [Compound 341] | 75
Cc1cn2nc([C@@H]3CCCCN3C(=O)c3nonc3NCCO)cc2nc1N1CC[C@H](N)C1 [Compound 342] | 79
Cc1cn2nc([C@@H]3CCCCN3C(=O)c3ccc4cccnc4c3)cc2nc1N1CC[C@H](N)C1 [Compound 343] | 60
Cc1cn2nc([C@@H]3CCCCN3C(=O)c3nccc4ccccc34)cc2nc1N1CC[C@H](N)C1 [Compound 344] | 100
Cc1cn2nc([C@@H]3CCCCN3C(=O)c3cc(Cl)cnc3O)cc2nc1N1CC[C@H](N)C1 [Compound 345] | 100
Cc1cn2nc([C@@H]3CCCCN3C(=O)c3ccc(F)c(F)c3O)cc2nc1N1CC[C@H](N)C1 [Compound 346] | 100
Cc1cn2nc([C@@H]3CCCCN3C(=O)c3cc(F)ccc3Cl)cc2nc1N1CC[C@H](N)C1 [Compound 347] | 100
Cc1cn2nc([C@@H]3CCCCN3C(=O)c3c(Cl)c(C)nn3C)cc2nc1N1CC[C@H](N)C1 [Compound 348] | 99
Cc1cn2nc([C@@H]3CCCCN3C(=O)c3cccc4c3ccn4C)cc2nc1N1CC[C@H](N)C1 [Compound 349] | 100
Cc1cn2nc([C@@H]3CCCCN3C(=O)c3ccc4ccn(C)c4c3)cc2nc1N1CC[C@H](N)C1 [Compound 350] | 83.6
Cc1cn2nc([C@@H]3CCCCN3C(=O)c3cccc(C(C)C#N)c3)cc2nc1N1CC[C@H](N)C1 (stereo partly drawn) [Compound 351] | 100
Cc1cn2nc([C@@H]3CCCCN3C(=O)c3ccnc(Cl)c3F)cc2nc1N1CC[C@H](N)C1 [Compound 352] | 100
Cc1cn2nc([C@@H]3CCCCN3C(=O)c3c(F)ccc(F)c3F)cc2nc1N1CC[C@H](N)C1 [Compound 353] | 100
Cc1cc(C(=O)N2CCCC[C@H]2c2cc3nc(N4CC[C@H](N)C4)c(C)cn3n2)n(C(F)F)n1 [Compound 354] | 87
Cc1cn2nc([C@@H]3CCCCN3C(=O)c3cc(C)n(C(F)F)n3)cc2nc1N1CC[C@H](N)C1 [Compound 355] | 96

Compound | inhibition at 0.5 µM [%]
Cc1cn2nc([C@@H]3CCCCN3C(=O)c3ccn(CC(F)F)n3)cc2nc1N1CC[C@H](N)C1 [Compound 356] | 100
Cc1cn2nc([C@@H]3CCCCN3C(=O)c3nn(C)c4ccccc34)cc2nc1N1CC[C@H](N)C1 [Compound 357] | 82
Cc1cn2nc([C@@H]3CCCCN3C(=O)c3cccn4c(C)nnc34)cc2nc1N1CC[C@H](N)C1 [Compound 358] | 100
Cc1cn2nc([C@@H]3CCCCN3C(=O)c3ccc4c(c3)nnn4C)cc2nc1N1CC[C@H](N)C1 [Compound 359] | 100
Cc1cn2nc([C@@H]3CCCCN3C(=O)c3cc(-c4ccco4)n[nH]3)cc2nc1N1CC[C@H](N)C1 [Compound 360] | 66
Cc1cn2nc([C@@H]3CCCCN3C(=O)c3ccc4ncsc4c3)cc2nc1N1CC[C@H](N)C1 [Compound 361] | 88
Cc1cn2nc([C@@H]3CCCCN3C(=O)c3cc4cccnc4s3)cc2nc1N1CC[C@H](N)C1 [Compound 362] | 100
Cc1cn2nc([C@@H]3CCCCN3C(=O)c3nc4ccccn4c3F)cc2nc1N1CC[C@H](N)C1 [Compound 363] | 99
Cc1cn2nc([C@@H]3CCCCN3C(=O)c3ccc4c(c3)OCCO4)cc2nc1N1CC[C@H](N)C1 [Compound 364] | 99
Cc1cn2nc([C@@H]3CCCCN3C(=O)c3cccc(OC(C)C)c3)cc2nc1N1CC[C@H](N)C1 [Compound 365] | 100
Cc1cn2nc([C@@H]3CCCCN3C(=O)c3cnn(C4CCCC4)c3)cc2nc1N1CC[C@H](N)C1 [Compound 366] | 100
Cc1cn2nc([C@@H]3CCCCN3C(=O)c3c4c(nn3C)CCCC4)cc2nc1N1CC[C@H](N)C1 [Compound 367] | 94
Cc1cn2nc([C@@H]3CCCCN3C(=O)c3cc(CC(C)C)nn3C)cc2nc1N1CC[C@H](N)C1 [Compound 368] | 58
Cc1cn2nc([C@@H]3CCCCN3C(=O)c3csc4c3CCCC4)cc2nc1N1CC[C@H](N)C1 [Compound 369] | 91
Cc1cn2nc([C@@H]3CCCCN3C(=O)c3cc4c(s3)CCCC4)cc2nc1N1CC[C@H](N)C1 [Compound 370] | 99
CNC(=O)c1cc(C(=O)N2CCCC[C@H]2c2cc3nc(N4CC[C@H](N)C4)c(C)cn3n2)n(C)n1 [Compound 371] | 100
CCC(=O)Nc1nonc1C(=O)N1CCCC[C@H]1c1cc2nc(N3CC[C@H](N)C3)c(C)cn2n1 [Compound 372] | 38
Cc1cn2nc([C@@H]3CCCCN3C(=O)c3scc4c3OCCO4)cc2nc1N1CC[C@H](N)C1 [Compound 373] | 99
COc1ccc(Cl)c(C(=O)N2CCCC[C@H]2c2cc3nc(N4CC[C@H](N)C4)c(C)cn3n2)c1 [Compound 374] | 100
COc1ccc(C(=O)N2CCCC[C@H]2c2cc3nc(N4CC[C@H](N)C4)c(C)cn3n2)cc1Cl [Compound 375] | 99
COc1cc(Cl)cc(C(=O)N2CCCC[C@H]2c2cc3nc(N4CC[C@H](N)C4)c(C)cn3n2)c1 [Compound 376] | 100

Same assay, conditions: human respiratory syncytial virus, HEp-2, RSV-induced cytopathic effects, Hep2 cells; class symbols

Compound | EC50 [nM]
Cc1cn2nc([C@@H]3CCCCN3C(=O)c3cccc(C)c3Cl)cc2nc1N1CC[C@H](N)C1 [Compound 334] | 0.1 to 100
Cc1ccc(Cl)cc1C(=O)N1CCCC[C@H]1c1cc2nc(N3CC[C@H](N)C3)c(C)cn2n1 [Compound 335] | 0.1 to 100
Cc1cn2nc([C@@H]3CCCCN3C(=O)c3ccc(C(N)=O)s3)cc2nc1N1CC[C@H](N)C1 [Compound 336] | 101 to 1000
Cc1cn2nc([C@@H]3CCCCN3C(=O)c3cccc4ccccc34)cc2nc1N1CC[C@H](N)C1 [Compound 338] | 101 to 1000
Cc1cn2nc([C@@H]3CCCCN3C(=O)c3cc(O)ccc3Cl)cc2nc1N1CC[C@H](N)C1 [Compound 339] | 0.1 to 100
Cc1cn2nc([C@@H]3CCCCN3C(=O)c3ccc(Cl)c(O)c3)cc2nc1N1CC[C@H](N)C1 [Compound 340] | 0.1 to 100
Cc1cc(C(=O)N2CCCC[C@H]2c2cc3nc(N4CC[C@H](N)C4)c(C)cn3n2)c(Cl)nn1 [Compound 341] | 0.1 to 100
Cc1cn2nc([C@@H]3CCCCN3C(=O)c3nonc3NCCO)cc2nc1N1CC[C@H](N)C1 [Compound 342] | 101 to 1000
Cc1cn2nc([C@@H]3CCCCN3C(=O)c3ccc4cccnc4c3)cc2nc1N1CC[C@H](N)C1 [Compound 343] | 101 to 1000
Cc1cn2nc([C@@H]3CCCCN3C(=O)c3nccc4ccccc34)cc2nc1N1CC[C@H](N)C1 [Compound 344] | 0.1 to 100
Cc1cn2nc([C@@H]3CCCCN3C(=O)c3cc(Cl)cnc3O)cc2nc1N1CC[C@H](N)C1 [Compound 345] | 0.1 to 100
Cc1cn2nc([C@@H]3CCCCN3C(=O)c3ccc(F)c(F)c3O)cc2nc1N1CC[C@H](N)C1 [Compound 346] | 0.1 to 100
Cc1cn2nc([C@@H]3CCCCN3C(=O)c3cc(F)ccc3Cl)cc2nc1N1CC[C@H](N)C1 [Compound 347] | 0.1 to 100
Cc1cn2nc([C@@H]3CCCCN3C(=O)c3c(Cl)c(C)nn3C)cc2nc1N1CC[C@H](N)C1 [Compound 348] | 0.1 to 100
Cc1cn2nc([C@@H]3CCCCN3C(=O)c3cccc4c3ccn4C)cc2nc1N1CC[C@H](N)C1 [Compound 349] | 0.1 to 100
Cc1cn2nc([C@@H]3CCCCN3C(=O)c3ccc4ccn(C)c4c3)cc2nc1N1CC[C@H](N)C1 [Compound 350] | 101 to 1000
Cc1cn2nc([C@@H]3CCCCN3C(=O)c3cccc(C(C)C#N)c3)cc2nc1N1CC[C@H](N)C1 (stereo partly drawn) [Compound 351] | 0.1 to 100
Cc1cn2nc([C@@H]3CCCCN3C(=O)c3ccnc(Cl)c3F)cc2nc1N1CC[C@H](N)C1 [Compound 352] | 0.1 to 100
Cc1cn2nc([C@@H]3CCCCN3C(=O)c3c(F)ccc(F)c3F)cc2nc1N1CC[C@H](N)C1 [Compound 353] | 0.1 to 100
Cc1cc(C(=O)N2CCCC[C@H]2c2cc3nc(N4CC[C@H](N)C4)c(C)cn3n2)n(C(F)F)n1 [Compound 354] | 101 to 1000
Cc1cn2nc([C@@H]3CCCCN3C(=O)c3cc(C)n(C(F)F)n3)cc2nc1N1CC[C@H](N)C1 [Compound 355] | 0.1 to 100

Compound | EC50 [nM]
Cc1cn2nc([C@@H]3CCCCN3C(=O)c3ccn(CC(F)F)n3)cc2nc1N1CC[C@H](N)C1 [Compound 356] | 0.1 to 100
Cc1cn2nc([C@@H]3CCCCN3C(=O)c3nn(C)c4ccccc34)cc2nc1N1CC[C@H](N)C1 [Compound 357] | 101 to 1000
Cc1cn2nc([C@@H]3CCCCN3C(=O)c3cccn4c(C)nnc34)cc2nc1N1CC[C@H](N)C1 [Compound 358] | 0.1 to 100
Cc1cn2nc([C@@H]3CCCCN3C(=O)c3ccc4c(c3)nnn4C)cc2nc1N1CC[C@H](N)C1 [Compound 359] | 0.1 to 100
Cc1cn2nc([C@@H]3CCCCN3C(=O)c3cc(-c4ccco4)n[nH]3)cc2nc1N1CC[C@H](N)C1 [Compound 360] | 101 to 1000
Cc1cn2nc([C@@H]3CCCCN3C(=O)c3ccc4ncsc4c3)cc2nc1N1CC[C@H](N)C1 [Compound 361] | 0.1 to 100
Cc1cn2nc([C@@H]3CCCCN3C(=O)c3cc4cccnc4s3)cc2nc1N1CC[C@H](N)C1 [Compound 362] | 0.1 to 100
Cc1cn2nc([C@@H]3CCCCN3C(=O)c3nc4ccccn4c3F)cc2nc1N1CC[C@H](N)C1 [Compound 363] | 0.1 to 100
Cc1cn2nc([C@@H]3CCCCN3C(=O)c3ccc4c(c3)OCCO4)cc2nc1N1CC[C@H](N)C1 [Compound 364] | 0.1 to 100
Cc1cn2nc([C@@H]3CCCCN3C(=O)c3cccc(OC(C)C)c3)cc2nc1N1CC[C@H](N)C1 [Compound 365] | 0.1 to 100
Cc1cn2nc([C@@H]3CCCCN3C(=O)c3cnn(C4CCCC4)c3)cc2nc1N1CC[C@H](N)C1 [Compound 366] | 0.1 to 100
Cc1cn2nc([C@@H]3CCCCN3C(=O)c3c4c(nn3C)CCCC4)cc2nc1N1CC[C@H](N)C1 [Compound 367] | 0.1 to 100
Cc1cn2nc([C@@H]3CCCCN3C(=O)c3cc(CC(C)C)nn3C)cc2nc1N1CC[C@H](N)C1 [Compound 368] | 101 to 1000
Cc1cn2nc([C@@H]3CCCCN3C(=O)c3csc4c3CCCC4)cc2nc1N1CC[C@H](N)C1 [Compound 369] | 0.1 to 100
Cc1cn2nc([C@@H]3CCCCN3C(=O)c3cc4c(s3)CCCC4)cc2nc1N1CC[C@H](N)C1 [Compound 370] | 0.1 to 100
CNC(=O)c1cc(C(=O)N2CCCC[C@H]2c2cc3nc(N4CC[C@H](N)C4)c(C)cn3n2)n(C)n1 [Compound 371] | 0.1 to 100
CCC(=O)Nc1nonc1C(=O)N1CCCC[C@H]1c1cc2nc(N3CC[C@H](N)C3)c(C)cn2n1 [Compound 372] | 101 to 1000
Cc1cn2nc([C@@H]3CCCCN3C(=O)c3scc4c3OCCO4)cc2nc1N1CC[C@H](N)C1 [Compound 373] | 0.1 to 100
COc1ccc(Cl)c(C(=O)N2CCCC[C@H]2c2cc3nc(N4CC[C@H](N)C4)c(C)cn3n2)c1 [Compound 374] | 0.1 to 100
COc1ccc(C(=O)N2CCCC[C@H]2c2cc3nc(N4CC[C@H](N)C4)c(C)cn3n2)cc1Cl [Compound 375] | 0.1 to 100
COc1cc(Cl)cc(C(=O)N2CCCC[C@H]2c2cc3nc(N4CC[C@H](N)C4)c(C)cn3n2)c1 [Compound 376] | 0.1 to 100
